Assay type in all cases: functional
Assay [1] relates to Spodoptera littoralis. Description: Antifeedant activity against Spodoptera littoralis fifth-instar larvae reared on compound exposed lettuce disks assessed as feeding ratio when 50% of control leaf disk area consumed at 0.1 ug/cm2 measured for 4 to 5 hr by leaf disk choice method.
Assay [2] concerns Spodoptera littoralis. Description: Antifeedant activity against Spodoptera littoralis fifth-instar larvae reared on compound exposed lettuce disks assessed as feeding ratio when 50% of control leaf disk area consumed at 10 ug/cm2 measured for 4 to 5 hr by leaf disk choice method.
Assay [3] deals with Spodoptera littoralis. Kind of assay: Antifeedant activity against Spodoptera littoralis fifth-instar larvae reared on compound exposed lettuce disks assessed as feeding ratio when 50% of control leaf disk area consumed at 1 ug/cm2 measured for 4 to 5 hr by leaf disk choice method.
Assay [4] deals with Spodoptera littoralis. Description: Antifeedant activity against Spodoptera littoralis fifth-instar larvae reared on compound exposed lettuce disks assessed as leaf disk protection at 10 to 1 ug/cm2 measured for 4 to 5 hr by leaf disk choice method.

Take `CC[C@H](C)C(=O)O[C@H]1[C@H](O)C[C@@H]2[C@@](C)([C@@H]3C[C@H]4CCO[C@H]4O3)[C@H](C)C[C@H](OC(C)=O)[C@@]2(COC(C)=O)[C@@]12CO2` [14,15-DIHYDROAJUGAPITIN]: the FR50 in the assay on Spodoptera littoralis [1] worked out at 0.32. Consider `CC(=O)O[C@H]1[C@@H]2C[C@@]3(OC2(C)C)[C@](C)([C@H]1OC(=O)c1ccccc1)[C@@H](OC(=O)c1ccccc1)[C@H](OC(C)=O)[C@H](OC(C)=O)[C@]3(C)O` [2BETA,3BETA,4BETA-TRIHYDROXYCELAPANOL], for which the FR50 in the assay on Spodoptera littoralis [2] is reported as 0.38. Consider `CC(=O)O[C@@H]1[C@@H]2[C@@H](OC(C)=O)[C@]3(OC2(C)C)[C@H](C)C[C@H](OC(C)=O)[C@H](OC(C)=O)[C@@]3(CO)[C@H]1OC(=O)c1ccccc1`, for which the FR50 is 0.53 in the assay on Spodoptera littoralis [3] and 0.07 in the assay with Spodoptera littoralis [2]. Regarding `CC(=O)OC[C@@]12[C@@H](OC(=O)c3ccccc3)CC[C@](C)(O)[C@]13OC(C)(C)[C@H]([C@@H](OC(C)=O)[C@H]2OC(=O)c1ccccc1)[C@H]3OC(C)=O`, the figures for the FR50 in the assay on Spodoptera littoralis [3] and with Spodoptera littoralis [2] were 0.58 and 0.24, respectively. On to `CCC(C)C(=O)O[C@H]1[C@H](O)C[C@@H]2[C@@](C)([C@@H]3C[C@H]4C=CO[C@H]4O3)[C@H](C)C[C@H](OC(C)=O)[C@@]2(COC(C)=O)[C@@]12CO2` (stereo partly drawn) [AJUGAPITIN], for which the FR50 in the assay with Spodoptera littoralis [1] amounted to 0.41. Regarding `CC(=O)O[C@H]1[C@H](OC(=O)c2ccccc2)[C@@]2(C)[C@@H](OC(=O)c3ccccc3)C[C@@H]3[C@@H](OC(C)=O)[C@]2(OC3(C)C)[C@@](C)(O)[C@H]1O` [2BETA,3BETA,4BETA,TRIHYDROXYCELARBICO], the FR50 in the assay with Spodoptera littoralis [3] is reported as 0.44; with Spodoptera littoralis [2] it was 0.24. For the molecule `CC(=O)O[C@@H]1[C@@H]2[C@@H](OC(C)=O)[C@]3(OC2(C)C)[C@H](C)C[C@H](OC(C)=O)[C@H](OC(C)=O)[C@@]3(CO)[C@@H]1OC(=O)c1ccccc1`, the FR50 in the assay with Spodoptera littoralis [3] was 0.65; with Spodoptera littoralis [2] it was 0.16.

Regarding `CC(=O)O[C@H]1[C@@H]2[C@@H](OC(=O)c3cccnc3)[C@@]3(OC2(C)C)[C@@](C)([C@@H](OC(=O)c2ccccc2)CC[C@]3(C)O)[C@@H]1OC(C)=O`, the FR50 was found to be 0.15 in the assay with Spodoptera littoralis [3], 0.04 in the assay on Spodoptera littoralis [2] and 0.45 in the assay with Spodoptera littoralis [1]. In addition, the Activity in the assay with Spodoptera littoralis [4] came out at 100%. On to `CC(=O)OC[C@]12[C@@H](OC(=O)c3ccccc3)C[C@@H]3[C@@H](OC(C)=O)[C@]1(OC3(C)C)[C@H](C)C[C@H](OC(C)=O)[C@@H]2OC(C)=O`, for which the values for the FR50 with Spodoptera littoralis [3] and with Spodoptera littoralis [2] were 0.54 and 0.19, respectively. On to `CCC(C)C(=O)O[C@H]1[C@H](OC(C)=O)C[C@@H]2[C@@](C)([C@@H]3C[C@H]4CCO[C@H]4O3)[C@H](C)C[C@H](OC(C)=O)[C@@]2(COC(C)=O)[C@@]12CO2` (stereo partly drawn) [2-acetyl-14,15-dihydroajugapitin], for which the FR50 in the assay with Spodoptera littoralis [1] amounted to 0.62. Regarding `CC(=O)O[C@H]1C[C@@H]2[C@@H](OC(=O)c3cccnc3)[C@@]3(OC2(C)C)[C@@]1(C)[C@@H](OC(=O)c1ccccc1)CC[C@]3(C)O`, in the assay with Spodoptera littoralis [2], the FR50 stood at 0.68. In the case of `CC(=O)OC[C@]12[C@@H](OC(=O)c3ccccc3)[C@H](OC(C)=O)[C@@H]3[C@@H](OC(C)=O)[C@]1(OC3(C)C)[C@H](C)C[C@H](OC(C)=O)[C@@H]2OC(C)=O`, the FR50 in the assay on Spodoptera littoralis [3] was 0.71; with Spodoptera littoralis [2] it was 0.13.

Turning to `CC(=O)O[C@H]1C[C@@H](C)[C@]23OC(C)(C)[C@H](C[C@H](OC(=O)c4ccccc4)[C@]2(CO)[C@H]1OC(C)=O)[C@H]3OC(C)=O`, the FR50 in the assay with Spodoptera littoralis [2] was determined as 0.36. With `CC(=O)OC[C@@]12[C@@H](OC(=O)/C=C/c3ccccc3)CC[C@](C)(O)[C@]13OC(C)(C)[C@H]([C@@H](OC(C)=O)[C@H]2OC(=O)c1ccccc1)[C@H]3OC(C)=O`, the FR50 in the assay with Spodoptera littoralis [2] worked out at 0.27. Consider `CC(=O)O[C@H]1[C@@H]2[C@@H](OC(C)=O)[C@@]3(OC2(C)C)[C@@](C)([C@@H](OC(=O)c2ccccc2)CC[C@]3(C)O)[C@@H]1OC(C)=O`, for which the figures for the FR50 with Spodoptera littoralis [3] and in the assay with Spodoptera littoralis [2] were 0.4 and 0.12, respectively. In the case of `CC(=O)OC[C@]12[C@H](OC(=O)c3ccccc3)[C@H](OC(C)=O)[C@@H]3[C@@H](OC(C)=O)[C@]1(OC3(C)C)[C@@](C)(O)C[C@H](OC(C)=O)[C@@H]2OC(=O)c1ccccc1`, in the assay with Spodoptera littoralis [2], the FR50 was 0.35. Same read-out and setting: in the case of TRIPHENYLSTANNYL ACETATE it was 0.37; in that of `CC(=O)O[C@@H]1[C@@H](O)[C@@H]2[C@@H](OC(=O)c3cccnc3)[C@@]3(OC2(C)C)[C@@]1(C)[C@@H](OC(=O)c1ccccc1)CC[C@]3(C)O`, 0.74.

Values taken from ChEMBL document CHEMBL3045149, “Antifeedant activity of dihydro--agarofuran sesquiterpenes from Celastraceae against Spodoptera littoralis” (1992).
